Test results: patent US12427134B2, “Methods of reducing the risk of cardiovascular events in a subject with atrial fibrillation and/or atrial flutter” (priority 2019, dated 2025)

System: hypertriglyceridemic patients with cardiovascular disease or at high risk for cardiovascular disease
Assay: REDUCE-IT: fasting lipid, lipoprotein and inflammatory biomarkers and serum EPA, change from baseline
Assay type: in vivo, human
Details: for Approximated LDL-C (Hopkins), median difference from placebo in percent change from baseline: Hodges-Lehmann estimate
Protocol: Fasting Lipid Profile: The fasting lipid panel included: TG, TC, LDL-C, HDL-C, non-HDL-C, and VLDL-C. At all visits, LDL-C was calculated using the Friedewald equation. At Visit 1 and Visit 1.1 direct LDL-C were used if at the same visit TG >400 mg/dL (4.52 mmol/L). These LDL-C values were used for the evaluation of the LDL-C inclusion criterion (LDL-C qualifying measurements for randomization) and for the assessment of changes in the statin therapy when LDL-C was not at goal. […] In addition, irrespective of the TG levels, at Visit 2 (0 Months of Follow-up, baseline) and at Visit 4 (12 Months of Follow-up), LDL-C were measured by preparative ultracentrifugation. These preparative ultracentrifugation LDL-C measurements were used in the statistical analysis including the calculation of the percent change from baseline (1 year versus baseline). Hopkins LDL-C was calculated for each visit.
Biomarkers Assays: The biomarker assays included: hsCRP, Apo B and hsTnT.
The fasting lipid panel was tested at Screening (Visit 1 or Visit 1.1), Randomization visit (Visit 2; Day 0), Visit 3 (Day 120; ˜4 Months) and all other follow-up visits including the last visit. For change from baseline to 1 year preparative ultracentrifugation measurements for LDL-C were analyzed, unless this value was missing. If the LDL-C preparative ultracentrifugation values were missing, then another LDL-C value was used, with prioritization of values obtained from LDL-C Direct measurements, followed by LDL-C derived by the Friedewald calculation (only for subjects with TG <400 mg/dL), and finally LDL-C derived using the calculation published by Hopkins University investigators (Martin S S, Blaha M J, Elshazly M B, et al. Comparison of a novel method vs the Friedewald equation for estimating low-density lipoprotein cholesterol levels from the standard lipid profile. JAMA. 2013; 310:2061-8.). In addition, change from baseline to day 120 in LDL-C utilizing Friedewald's and Hopkins methods was analyzed, using the arithmetic mean of LDL-C obtained at Visit 2 (Day 0) and the preceding Visit 1 (or Visit 1.1). If one of these values was missing, the single available LDL-C value was used. LDL-C according to Hopkins was calculated at each visit.
The randomization visit was considered Baseline. If a baseline value was not available from the randomization visit, then the latest screening value was used. For measurements of lipids, lipoproteins and inflammatory markers, the change and the percent change were summarized at each visit. Since these biomarkers are typically not normally distributed, the Wilcoxon rank-sum test was used for treatment comparisons of the percent change from baseline, and medians and quartiles were provided for each treatment group. The medians of the differences between the treatment groups and 95% CIs were estimated with the Hodges-Lehmann method. In addition, shift-tables were generated as appropriate.

[1] = Last Visit, vs placebo, ITT population
[2] = baseline to the last study value

## CC/C=C\C/C=C\C/C=C\C/C=C\C/C=C\CCCC(=O)OCC [AMR101, eicosapentaenoic acid ethyl ester]
Baseline, ITT population
  Apo B Median Observed Value: 82.0 mg/dL
  LDL-C Hopkins Median Observed Value: 85.8 mg/dL
  LDL-C derived Median Observed Value: 74.0
  Non-HDL-C Median Observed Value: 118.0 mg/dL
  Triglycerides Median Observed Value: 216.5 mg/dL
  hsCRP Median Observed Value: 2.2 mg/L
Last Visit, ITT population
  LDL-C derived Median Observed Value: 77.0
  Triglycerides Median Absolute Change from Baseline: 45.0 mg/dL
[1]
  LDL-C derived Between Group Difference Median % Change from Baseline: −6.6%
  LDL-C derived Between Group Difference Median Absolute Change from Baseline: −5.0
Year 1
  HDL-C, median: 39.0 mg/dL
  LDL-C, median: 77.0 mg/dL
Year 1, vs placebo
  HDL-C, median between group difference, % change from baseline: −6.3%
  HDL-C, median between group difference, absolute change from baseline: -2.5 mg/dL
  LDL-C, median between group difference, % change from baseline: −6.6%
  LDL-C, median between group difference, absolute change from baseline: -5.0 mg/dL
Year 1, vs placebo, ITT population
  Triglycerides Between Group Difference Median Absolute Change from Baseline: 44.5 mg/dL
Year 2, ITT population
  Non-HDL-C Median Observed Value: 113.0 mg/dL
Year 2, vs placebo, ITT population
  Triglycerides Between Group Difference Median % Change from Baseline: −19.7%
Year 3, ITT population
  HDL-C Median Observed Value: 40.0 mg/dL
  Non-HDL-C Median Absolute Change from Baseline: 4.8 mg/dL
Year 4, ITT population
  Non-HDL-C Median % Change from Baseline: 4.2%
Year 5, ITT population
  Non-HDL-C Median % Change from Baseline: 4.4%
Baseline to one year
  Approximated LDL-C (Hopkins), median change from baseline: -1.1 mg/dL
  Approximated LDL-C (Hopkins), median percent change from baseline: −1.2%
  Triglycerides, median change from baseline: -39.0 mg/dL
  Triglycerides, median percent change from baseline: −18.3%
[2]
  Approximated LDL-C (Hopkins), median change from baseline: -1.0 mg/dL
  Approximated LDL-C (Hopkins), median percent change from baseline: −1.2%
  Triglycerides, median change from baseline: -45.0 mg/dL
  Triglycerides, median percent change from baseline: −21.6%
Last study value
  Approximated LDL-C (Hopkins), median difference from placebo in percent change from baseline: −7.4%
One year
  Triglycerides, greater reduction than in the placebo group: 44.5 mg/dL
  Approximated LDL-C (Hopkins), median difference from placebo in percent change from baseline: −11.4%
One year, Hodges-Lehmann approach
  Triglycerides, median reduction from baseline greater than in the placebo group: 19.7%
